# Test results from ChEMBL document CHEMBL4261615, “Design, synthesis, biological evaluation and cellular imaging of imidazo[4,5-b]pyridine derivatives as potent and selective TAM inhibitors” (Bioorg Med Chem, 2018).
# Calls of active or inactive are those of the source. The calls are words filed in the database; no cut-off is given here.
# Experiments:
# [1] = target: T1, Tyrosine-protein kinase receptor TYRO3 (Homo sapiens) (UniProt Q06418); assay: Inhibition of recombinant GST-tagged human Tyro3 (451 to 890 residues) cytoplasmic domain expressed in Baculovirus expression system using poly (Glu-Ala-Tyr) peptide as substrate after 1.5 hrs by ELISA
# T1 sequence (whole entry): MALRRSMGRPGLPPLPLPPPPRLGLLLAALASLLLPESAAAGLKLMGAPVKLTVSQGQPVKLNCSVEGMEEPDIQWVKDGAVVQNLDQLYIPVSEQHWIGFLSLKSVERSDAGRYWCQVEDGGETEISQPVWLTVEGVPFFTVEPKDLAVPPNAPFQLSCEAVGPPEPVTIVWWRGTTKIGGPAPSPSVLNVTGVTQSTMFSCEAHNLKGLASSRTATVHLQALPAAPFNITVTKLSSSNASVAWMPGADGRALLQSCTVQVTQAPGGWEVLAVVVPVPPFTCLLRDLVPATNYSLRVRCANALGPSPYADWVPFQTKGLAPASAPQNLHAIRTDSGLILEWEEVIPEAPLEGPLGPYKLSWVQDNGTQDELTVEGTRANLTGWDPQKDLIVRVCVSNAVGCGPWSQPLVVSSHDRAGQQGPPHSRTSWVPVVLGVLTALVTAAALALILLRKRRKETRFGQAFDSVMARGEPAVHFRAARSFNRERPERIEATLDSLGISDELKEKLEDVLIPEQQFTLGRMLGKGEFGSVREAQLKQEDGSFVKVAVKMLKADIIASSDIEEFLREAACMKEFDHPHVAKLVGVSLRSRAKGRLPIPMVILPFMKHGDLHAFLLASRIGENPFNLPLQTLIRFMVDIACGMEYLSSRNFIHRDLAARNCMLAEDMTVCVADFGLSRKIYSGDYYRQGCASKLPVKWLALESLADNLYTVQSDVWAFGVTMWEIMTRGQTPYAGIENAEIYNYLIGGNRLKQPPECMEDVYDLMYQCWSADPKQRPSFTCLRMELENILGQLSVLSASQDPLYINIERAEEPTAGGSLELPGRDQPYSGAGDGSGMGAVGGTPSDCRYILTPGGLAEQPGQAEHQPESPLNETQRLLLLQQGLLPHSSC
# [2] = target: Tyrosine-protein kinase receptor UFO (Homo sapiens) (UniProt P30530); assay: Inhibition of recombinant His-tagged human Axl (473 to end residues) cytoplasmic domain expressed in insect system using poly (Glu-Ala-Tyr) peptide as substrate after 1.5 hrs by ELISA
# Tyrosine-protein kinase receptor UFO (Homo sapiens), sequence (P30530 whole entry, the tested form may be a part): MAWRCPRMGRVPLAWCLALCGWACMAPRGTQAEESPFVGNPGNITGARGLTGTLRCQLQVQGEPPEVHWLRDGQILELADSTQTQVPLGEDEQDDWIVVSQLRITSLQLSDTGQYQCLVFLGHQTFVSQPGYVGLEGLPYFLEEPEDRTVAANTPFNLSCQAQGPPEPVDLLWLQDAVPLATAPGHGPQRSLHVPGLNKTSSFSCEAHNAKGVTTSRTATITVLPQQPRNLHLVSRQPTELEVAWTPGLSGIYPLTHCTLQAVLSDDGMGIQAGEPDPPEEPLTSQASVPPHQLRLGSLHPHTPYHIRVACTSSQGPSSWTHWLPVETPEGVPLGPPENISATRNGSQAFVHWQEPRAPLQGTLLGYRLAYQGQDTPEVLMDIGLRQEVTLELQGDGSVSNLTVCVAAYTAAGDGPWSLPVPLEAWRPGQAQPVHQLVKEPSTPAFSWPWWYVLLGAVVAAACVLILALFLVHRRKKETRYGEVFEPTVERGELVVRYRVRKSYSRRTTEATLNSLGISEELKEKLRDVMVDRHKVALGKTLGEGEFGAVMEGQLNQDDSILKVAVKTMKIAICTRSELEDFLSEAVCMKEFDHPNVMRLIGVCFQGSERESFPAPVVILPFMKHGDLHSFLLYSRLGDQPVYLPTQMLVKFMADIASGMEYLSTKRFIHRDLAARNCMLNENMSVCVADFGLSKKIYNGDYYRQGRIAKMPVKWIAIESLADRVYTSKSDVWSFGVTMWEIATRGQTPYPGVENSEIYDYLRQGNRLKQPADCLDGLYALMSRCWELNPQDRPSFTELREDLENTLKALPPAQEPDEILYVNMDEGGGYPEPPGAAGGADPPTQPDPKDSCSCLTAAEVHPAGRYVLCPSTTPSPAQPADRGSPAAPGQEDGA
# [3] = target: T2, Tyrosine-protein kinase Mer (Homo sapiens) (UniProt Q12866); assay: Inhibition of recombinant GST-tagged human Mer (578 to 872 residues) cytoplasmic domain expressed in Baculovirus system using poly (Glu-Ala-Tyr) peptide as substrate after 1.5 hrs by ELISA
# T2 sequence (whole entry): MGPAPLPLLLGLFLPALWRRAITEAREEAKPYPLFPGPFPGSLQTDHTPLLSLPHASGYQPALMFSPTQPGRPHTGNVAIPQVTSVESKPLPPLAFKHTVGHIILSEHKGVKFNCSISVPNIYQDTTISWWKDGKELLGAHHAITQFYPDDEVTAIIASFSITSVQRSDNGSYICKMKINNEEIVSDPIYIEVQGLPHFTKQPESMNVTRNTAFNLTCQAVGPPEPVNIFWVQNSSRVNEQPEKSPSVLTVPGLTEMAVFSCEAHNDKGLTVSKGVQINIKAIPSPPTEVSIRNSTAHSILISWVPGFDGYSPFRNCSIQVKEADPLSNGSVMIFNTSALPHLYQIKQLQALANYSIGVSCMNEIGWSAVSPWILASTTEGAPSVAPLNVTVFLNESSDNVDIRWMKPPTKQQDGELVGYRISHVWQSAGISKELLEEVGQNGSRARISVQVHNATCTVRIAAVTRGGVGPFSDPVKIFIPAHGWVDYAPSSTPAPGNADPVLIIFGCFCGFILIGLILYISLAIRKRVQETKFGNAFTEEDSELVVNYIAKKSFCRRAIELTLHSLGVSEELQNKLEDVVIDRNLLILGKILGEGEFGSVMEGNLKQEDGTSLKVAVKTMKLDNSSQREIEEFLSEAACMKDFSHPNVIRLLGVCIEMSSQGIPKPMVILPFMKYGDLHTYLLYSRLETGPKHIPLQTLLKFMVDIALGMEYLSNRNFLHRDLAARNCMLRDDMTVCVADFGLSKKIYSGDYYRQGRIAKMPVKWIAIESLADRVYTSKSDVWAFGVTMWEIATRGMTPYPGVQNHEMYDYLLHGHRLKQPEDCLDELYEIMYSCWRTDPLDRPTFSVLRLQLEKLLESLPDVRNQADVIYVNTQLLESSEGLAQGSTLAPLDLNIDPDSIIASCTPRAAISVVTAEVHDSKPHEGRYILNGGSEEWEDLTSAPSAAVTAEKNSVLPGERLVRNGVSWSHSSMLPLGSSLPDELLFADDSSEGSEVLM
# [4] = (§1) Antiproliferative activity against human MGHU3 cells after 72 hrs by CellTiter-Glo assay; format: functional, cell-based
# RT-112 = assay: Antiproliferative activity against human RT112 cells after 72 hrs by CellTiter-Glo assay; format: functional, cell-based
# A549 = assay: Antiproliferative activity against human A549 cells after 72 hrs by CellTiter-Glo assay; format: functional, cell-based; conditions: A549, 72 h
# Homo sapiens = species on record: Homo sapiens; assay: as §1; format: functional, cell-based
inhibition [1],inhibition [2],inhibition [3],IC50 (A549),Compound,IC50 [4],"IC50 (RT-112; RT-112, 72 h)",Activity (Homo sapiens),Activity (RT-112)
inactive,inactive,inactive,,CCc1nc2c(Oc3ccc(NC(=O)c4cccn(-c5ccc(F)cc5)c4=O)cc3F)c(-c3ccc(N(C)C)cc3)cnc2[nH]1,,,,
inactive,inactive,inactive,,CC(C)c1nc2c(Oc3ccc(NC(=O)c4cccn(-c5ccc(F)cc5)c4=O)cc3F)c(-c3ccncc3)cnc2[nH]1,,,,
,,,2.5 to 5 µM,COc1cc2/c(=N/c3ccc(Br)cc3F)nc[nH]c2cc1OCC1CCN(C)CC1 [VANDETANIB],2.5 to 5 µM,2.5 to 5 µM,,
inactive,inactive,inactive,,CC(C)c1nc2c(Oc3ccc(NC(=O)c4cccn(-c5ccc(F)cc5)c4=O)cc3F)c(-c3ccc(O)cc3)cnc2[nH]1,,,,
inactive,inactive,inactive,,CCc1nc2c(Oc3ccc(NC(=O)c4cccn(-c5ccc(F)cc5)c4=O)cc3F)c(-c3ccc(O)cc3)cnc2[nH]1,,,,
inactive,inactive,inactive,,CCc1nc2c(Oc3ccc(NC(=O)c4cccn(-c5ccc(F)cc5)c4=O)cc3F)c(-c3cccnc3)cnc2[nH]1,,,,
inactive,inactive,inactive,,CC(C)c1nc2c(Oc3ccc(NC(=O)c4cccn(-c5ccc(F)cc5)c4=O)cc3F)c(-c3ccc(N(C)C)cc3)cnc2[nH]1,,,,
inactive,inactive,inactive,,CCc1nc2c(Oc3ccc(NC(=O)c4cccn(-c5ccc(F)cc5)c4=O)cc3F)c(-c3ccoc3)cnc2[nH]1,,,,
,,,,CCOc1ccn(-c2ccc(F)cc2)c(=O)c1C(=O)Nc1ccc(Oc2ccnc(N)c2Cl)c(F)c1,,,Active,Active
inactive,inactive,inactive,,O=C(Nc1ccc(Oc2c(-c3ccccc3)cnc3[nH]cnc23)c(F)c1)c1cccn(-c2ccc(F)cc2)c1=O,,,,
,,,,COc1cc2nccc(Oc3ccc(NC(=O)C4(C(=O)Nc5ccc(F)cc5)CC4)cc3)c2cc1OC,,,Active,Active
inactive,inactive,inactive,,CCc1nc2c(Oc3ccc(NC(=O)c4cccn(-c5ccc(F)cc5)c4=O)cc3F)c(-c3ccncc3)cnc2[nH]1,,,,
inactive,inactive,inactive,,CC(C)c1nc2c(Oc3ccc(NC(=O)c4cccn(-c5ccc(F)cc5)c4=O)cc3F)c(-c3ccoc3)cnc2[nH]1,,,,
inactive,inactive,inactive,,CC(C)c1nc2c(Oc3ccc(NC(=O)c4cccn(-c5ccc(F)cc5)c4=O)cc3F)c(-c3cccnc3)cnc2[nH]1,,,,
